Experimental findings from US9023858B2, “Substituted pyrido[2,3-d]pyrimidines as delta-5-desaturase inhibitors” (Takeda Pharmaceutical Company Limited, priority 2010, dated 2015) are described below.

In test [1] the target is T1, delta-5-desaturase (Homo sapiens, UniProt O60427).
T1 construct: endogenous in cells; host or cells: HepG2
Nature of the test: Delta-5-desaturase inhibitory activity using HepG2 cell. Type of test: cell-based. The note with it: test compound 1 μM.

The target of test [2] is T2, delta-5-desaturase (Rattus norvegicus, UniProt Q920R3).
T2 construct: a rat liver microsome fraction (10 μl) diluted to 3 mg/ml with a microsome buffer; from tissue; host or cells: rat liver microsome fraction
Nature of the test: Inhibitory activity on binding of [3H]-labelled Reference Example 1 ligand to delta-5-desaturase (rat liver microsome fraction). The note with it: test compound 10 μM, 3 nM tritiated ligand of Reference Example 1, read-out: Binding inhibitory activity against compound bind to delta-5-desaturase Binding inhibition rate (%) at 10 μM.

Test [3] deals with T2, delta-5-desaturase. Nature of the test: Delta-5-desaturase inhibitory activity using rat liver microsome. The note with it: test compound 10 μM. It is filed as biochemical.
Test [4] addresses T3, delta-5-desaturase (Mus musculus, UniProt Q920L1).
T3 construct: the mice were anesthetized, and the liver was isolated; tissue CLEA Japan, Inc; host or cells: liver of C57BL/6J mice (in vivo dosing)
T3 sequence (Q920L1 1-447): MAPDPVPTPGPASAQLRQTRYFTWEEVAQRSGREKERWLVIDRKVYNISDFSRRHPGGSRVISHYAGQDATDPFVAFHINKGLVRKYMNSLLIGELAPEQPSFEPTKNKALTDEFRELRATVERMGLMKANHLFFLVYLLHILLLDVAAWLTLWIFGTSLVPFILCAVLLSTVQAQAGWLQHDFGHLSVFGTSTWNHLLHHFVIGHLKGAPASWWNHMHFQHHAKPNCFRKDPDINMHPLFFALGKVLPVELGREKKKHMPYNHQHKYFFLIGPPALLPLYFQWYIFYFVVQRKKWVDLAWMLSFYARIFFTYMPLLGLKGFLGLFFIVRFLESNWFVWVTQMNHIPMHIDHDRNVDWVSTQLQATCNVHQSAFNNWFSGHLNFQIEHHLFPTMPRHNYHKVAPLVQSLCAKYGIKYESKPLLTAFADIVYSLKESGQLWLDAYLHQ
The experiment in a line: Delta-5-desaturase inhibitory action in vivo (liver AA/DGLA ratio in mice). The conditions noted are these: 3 mg/kg by gavage for 4 days; male C57BL/6J mice; liver phospholipid fraction; solvent administration group as 100%. On the procedure:
Delta-5-Desaturase Inhibitory Action In Vivo
The delta-5-desaturase inhibitory action of the test compound in vivo was evaluated by the following method. A suspension of a test compound (3 mg/kg) in 0.5% methylcellulose was administered by gavage every morning at 10 mL/kg for 4 days to 7- to 9-week-old male normal mice (C57BL/6J, CLEA Japan, Inc.) acclimated with a normal chow feed (CE-2, CLEA Japan, Inc.) in individual cages. In the next morning of the final administration, the mice were anesthetized, and the liver was isolated. Total lipid was extracted from about 40 mg of a liver sample with hexane-propanol solution, and a phospholipid fraction was extracted using a solid phase extraction column (Sep-Pak Vac NH2, Waters) and labeled with an esterified long-chain and short-chain fatty acid labeling reagent (YMC). The arachidonic acid and dihomo-γ-linolenic acid contents of the sample after labeling were measured by high performance liquid chromatography (Agilent 1200, Agilent Technologies). The arachidonic acid (AA) content was divided by the content of dihomo-γ-linolenic acid (DGLA) to obtain an AA/DGLA ratio. The decrease rate of the test compound administration group was calculated based on the AA/DGLA ratio of the solvent administration group as 100%, which was used as an index of the liver delta-5-desaturase inhibitory action in vivo.

T1 sequence (O60427 whole entry): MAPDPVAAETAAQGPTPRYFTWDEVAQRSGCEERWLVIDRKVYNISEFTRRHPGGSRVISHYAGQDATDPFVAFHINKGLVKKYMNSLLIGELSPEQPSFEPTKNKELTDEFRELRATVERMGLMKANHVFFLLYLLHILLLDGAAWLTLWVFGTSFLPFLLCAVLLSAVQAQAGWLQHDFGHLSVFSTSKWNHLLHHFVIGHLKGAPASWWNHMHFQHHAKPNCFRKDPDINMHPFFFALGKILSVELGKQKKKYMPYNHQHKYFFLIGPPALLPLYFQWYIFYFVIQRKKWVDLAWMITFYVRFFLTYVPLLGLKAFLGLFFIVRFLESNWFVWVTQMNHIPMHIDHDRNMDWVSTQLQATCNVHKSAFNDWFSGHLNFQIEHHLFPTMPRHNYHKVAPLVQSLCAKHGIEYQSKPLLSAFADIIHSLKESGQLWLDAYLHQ
T2 sequence (Q920R3 whole entry): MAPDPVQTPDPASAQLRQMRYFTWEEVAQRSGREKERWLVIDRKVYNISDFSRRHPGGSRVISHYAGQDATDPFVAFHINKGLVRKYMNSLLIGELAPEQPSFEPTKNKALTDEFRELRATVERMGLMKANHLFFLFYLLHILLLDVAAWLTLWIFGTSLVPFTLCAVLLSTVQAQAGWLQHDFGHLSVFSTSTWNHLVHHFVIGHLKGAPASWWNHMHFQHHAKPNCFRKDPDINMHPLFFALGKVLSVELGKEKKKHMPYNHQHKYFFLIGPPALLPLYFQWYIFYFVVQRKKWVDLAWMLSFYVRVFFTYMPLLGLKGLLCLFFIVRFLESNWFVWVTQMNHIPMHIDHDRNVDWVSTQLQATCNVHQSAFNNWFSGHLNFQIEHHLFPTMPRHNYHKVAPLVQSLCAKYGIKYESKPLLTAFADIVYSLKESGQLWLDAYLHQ

`O=c1ccc2c(=O)n(-c3ccc(OCC(F)(F)F)cc3)c(OCC(F)F)nc2[nH]1` [Example 16, 2-(2,2-difluoroethoxy)-3-[4-(2,2,2-trifluoroethoxy)phenyl]pyrido[2,3-d]pyrimidine-4,7(3H,8H)-dione]: at delta-5-desaturase [1], the inhibition at 1 µM was 102%. Moreover, the inhibition at 10 µM at delta-5-desaturase [2] is 96%; at delta-5-desaturase [3], 101%. Besides, the “lowering rate (%) of arachidonic acid/dihomo-γ-linolenic acid ratio” value at delta-5-desaturase [4] came to 69%.

For `O=C1CCc2c(nc(OCC(F)(F)F)n(-c3ccc(OCC(F)(F)F)cc3)c2=O)N1` [Example 22, 2-(2,2,2-trifluoroethoxy)-3-[4-(2,2,2-trifluoroethoxy)phenyl]-5,6-dihydropyrido[2,3-d]pyrimidine-4,7(3H,8H)-dione], the inhibition at 1 µM on delta-5-desaturase [1] was 101%. Also, the inhibition at 10 µM on delta-5-desaturase [2] stood at 92%; on delta-5-desaturase [3], 100%. In addition, the “lowering rate (%) of arachidonic acid/dihomo-γ-linolenic acid ratio” value at delta-5-desaturase [4] was determined as 68%.

As to `CCOc1nc2c(c(=O)n1-c1ccc(OCC(F)(F)F)cc1)CCC(=O)N2` [Example 23, 2-ethoxy-3-[4-(2,2,2-trifluoroethoxy)phenyl]-5,6-dihydropyrido[2,3-d]pyrimidine-4,7(3H,8H)-dione], the inhibition at 1 µM against delta-5-desaturase [1] was 93%. For the same compound, the inhibition at 10 µM on delta-5-desaturase [2] amounted to 91%; against delta-5-desaturase [3], 96%. For the same compound, the “lowering rate (%) of arachidonic acid/dihomo-γ-linolenic acid ratio” value at delta-5-desaturase [4] worked out at 67%.
